Data taken from publication PMC8296573, “Synthesis and Biological Evaluation of Fingolimod Derivatives as Antibacterial Agents” (ACS Omega, 2021).
≈ marks a conversion by molar mass, not a printed value. Read-outs that look alike come from different tables or passages of the source.

Tests used:
[1] = test system: S. aureus ATCC 25923; experiment: Antibacterial activity, pre-exposure (planktonic cells and biofilm formation); format: cell-based, Staphylococcus aureus; conditions: for MIC / inhibition at 5 µM / inhibition at 10 µM / inhibition at 15 µM / inhibition at 25 µM: Staphylococcus aureus, ATCC25923; for inhibition at 5 µM / inhibition at 10 µM / inhibition at 15 µM / inhibition at 25 µM / Average inhibition %, biofilms viability / Average inhibition %, planktonic cells viability: pre-exposure, ± SD
Method in brief: (§1)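 Read-outs were turbidity and resazurin reduction for planktonic cells, and resazurin followed by crystal violet biomass (A595) for biofilms. Compounds were present from inoculation onward, with 18 h aerobic growth at 37 °C under shaking.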

[2] = test system: S. aureus ATCC 25923; experiment: Antibacterial activity, post-exposure on preformed 18-h-old biofilms; format: cell-based, Staphylococcus aureus; conditions: ± SD; for inhibition at 25 µM / inhibition at 50 µM / inhibition at 100 µM / inhibition at 200 µM: Staphylococcus aureus; for inhibition at 25 µM: ATCC25923, 25 µM; for inhibition at 50 µM: ATCC25923, 50 µM; for inhibition at 100 µM: ATCC25923, 100 µM; for inhibition at 200 µM: ATCC25923, 200 µM
Method in brief: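 Biofilms grown 18 h without compound, medium then replaced and compound added for a further 24 h. Planktonic OD and resazurin (20 μM final) fluorescence (ex 560/em 590 nm) read; washed biofilms stained with 20 μM resazurin 30 min at 37 °C, then ethanol-fixed and crystal violet-stained, absorbance 595 nm.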

[3] = test system: A. baumannii NCTC 13423; experiment: Antibacterial activity, pre-exposure; format: cell-based, Acinetobacter baumannii; conditions: for Average inhibition %, biofilms viability / Average inhibition %, planktonic cells viability / inhibition at 10 µM / inhibition at 15 µM / inhibition at 25 µM / inhibition at 50 µM: A. baumannii NCTC 13423, pre-exposure, ± SD; for inhibition at 10 µM / inhibition at 15 µM / inhibition at 25 µM / inhibition at 50 µM / MIC: Acinetobacter baumannii, NCTC13423
Method in brief: as §1

[4] = test system: P. aeruginosa ATCC 9027; experiment: Antibacterial activity, pre-exposure; format: cell-based, Pseudomonas aeruginosa; conditions: for Average inhibition %, biofilms viability / Average inhibition %, planktonic cells viability / inhibition at 50 µM / inhibition at 100 µM / inhibition at 150 µM / inhibition at 200 µM: P. aeruginosa ATCC 9027, pre-exposure, ± SD; for inhibition at 50 µM / inhibition at 100 µM / inhibition at 150 µM / inhibition at 200 µM: Pseudomonas aeruginosa, ATCC9027
Method in brief: as §1

[5] = 10 µM, read-out: Average inhibition %, biofilms biomass
[6] = 10 µM, read-out: Average inhibition %, planktonic cells turbidity
[7] = 15 µM, read-out: Average inhibition %, biofilms biomass
[8] = 15 µM, read-out: Average inhibition %, planktonic cells turbidity
[9] = 25 µM, read-out: Average inhibition %, biofilms biomass
[10] = 25 µM, read-out: Average inhibition %, planktonic cells turbidity
[11] = read-out: Average inhibition %, biofilms biomass
[12] = read-out: Average inhibition %, planktonic cells turbidity
[13] = 50 µM, read-out: Average inhibition %, biofilms biomass
[14] = 50 µM, read-out: Average inhibition %, planktonic cells turbidity

For `CCCCCCCCCCc1ccc2nc(CC(N)(CO)CO)ccc2c1` [Compound 83, 2-Amino-2-[(6-decylquinolin-2-yl)methyl]propane-1,3-diol], the MIC ([1]; lowest concentration with no visible growth (>90% inhibition of turbidity and viability of planktonic cells), 18 h, read-out: MIC S. aureus ATCC 25923) was 10 µM (≈ 3.73 µg/mL), the inhibition at 5 µM ([1]; 5 µM, read-out: Average inhibition %, biofilms biomass) was 37.3 ± 7.9% and the inhibition at 5 µM ([1]; 5 µM, read-out: Average inhibition %, planktonic cells turbidity) was 37.9 ± 5.1%. The inhibition at 10 µM [1, 5] was 97.3 ± 0.8%, the inhibition at 10 µM [1, 6] was 99.5 ± 0.2% and the inhibition at 15 µM [1, 7] was 93.9 ± 1.4%. The inhibition at 15 µM [1, 8] was 99.4 ± 0.1%, the inhibition at 25 µM [1, 9] was 89.4 ± 1.4% and the inhibition at 25 µM [1, 10] was 99 ± 0.2%. For the same compound, the MIC ([1]; read-out: MIC (S. aureus)) was 10 µM (≈ 3.73 µg/mL), the “Average inhibition %, biofilms viability” value ([1]; 5 µM) was 34.6 ± 5.8% and the “Average inhibition %, planktonic cells viability” value ([1]; 5 µM) was 6.9 ± 10.7%. The “Average inhibition %, biofilms viability” value ([1]; 10 µM) was 99.6 ± 0.4%, the “Average inhibition %, planktonic cells viability” value ([1]; 10 µM) was 99.6 ± 0% and the “Average inhibition %, biofilms viability” value ([1]; 15 µM) was 99.8 ± 0.6%. The “Average inhibition %, planktonic cells viability” value ([1]; 15 µM) was 99.6 ± 0%, the “Average inhibition %, biofilms viability” value ([1]; 25 µM) was 99.6 ± 0.4% and the “Average inhibition %, planktonic cells viability” value ([1]; 25 µM) was 99.7 ± 0%. For the same compound, the “Average inhibition %, biofilms viability” value ([2]; 25 µM) was 16.8 ± 17.2%, the “Average inhibition %, planktonic cells viability” value ([2]; 25 µM) was 14.1 ± 20.9% and the “Average inhibition %, biofilms viability” value ([2]; 50 µM) was 34.4 ± 15.3%. The “Average inhibition %, planktonic cells viability” value ([2]; 50 µM) was 22.7 ± 19.5%, the “Average inhibition %, biofilms viability” value ([2]; 100 µM) was 56.6 ± 18.2% and the “Average inhibition %, planktonic cells viability” value ([2]; 100 µM) was 80.3 ± 17.9%. For the same compound, the “Average inhibition %, biofilms viability” value ([2]; 200 µM) was 58.6 ± 19.5%, the “Average inhibition %, planktonic cells viability” value ([2]; 200 µM) was 88.3 ± 12.1% and the inhibition at 25 µM [2, 11] was 31.7 ± 20.9%. For the same compound, the inhibition at 25 µM [2, 12] was 27.1 ± 19.8%, the inhibition at 50 µM [2, 11] was 50.3 ± 6.4% and the inhibition at 50 µM [2, 12] was 28.3 ± 13.2%. The inhibition at 100 µM [2, 11] was 71.3 ± 10.2%, the inhibition at 100 µM [2, 12] was 64.4 ± 14% and the inhibition at 200 µM [2, 11] was 71.5 ± 5.8%. The inhibition at 200 µM [2, 12] was 65.3 ± 5.8%, the “Average inhibition %, biofilms viability” value ([3]; 10 µM) was 0.7 ± 1.2% and the “Average inhibition %, planktonic cells viability” value ([3]; 10 µM) was 8 ± 5.8%. The “Average inhibition %, biofilms viability” value ([3]; 15 µM) was 1.2 ± 2.2%, the “Average inhibition %, planktonic cells viability” value ([3]; 15 µM) was 7.2 ± 6.6% and the “Average inhibition %, biofilms viability” value ([3]; 25 µM) was 5.6 ± 6.6%. The “Average inhibition %, planktonic cells viability” value ([3]; 25 µM) was 3.1 ± 3.1%, the “Average inhibition %, biofilms viability” value ([3]; 50 µM) was 68.9 ± 2.6% and the “Average inhibition %, planktonic cells viability” value ([3]; 50 µM) was 95.2 ± 1.7%. For the same compound, the inhibition at 10 µM [3, 5] was 6.4 ± 9.4%, the inhibition at 10 µM [3, 6] was 0% and the inhibition at 15 µM [3, 7] was 0%. It also gave an inhibition at 15 µM [3, 8] of 0%, an inhibition at 25 µM [3, 9] of 0% and an inhibition at 25 µM [3, 10] of 11.8 ± 12.4%. The inhibition at 50 µM [3, 13] was 10.4 ± 10.2%, the inhibition at 50 µM [3, 14] was 88.3 ± 1.5% and the MIC ([3]; pre-exposure, Inactive = no activity up to 50 μM, > = some inhibition but no MIC reached, read-out: MIC A. baumannii NCTC 13423) was greater than 50 µM. For the same compound, the MIC ([3]; supplementary molecular formula strings sheet, read-out: MIC (A. baumannii)) was greater than 50 µM, the “Average inhibition %, biofilms viability” value ([4]; 50 µM) was 12.2 ± 21.1% and the “Average inhibition %, planktonic cells viability” value ([4]; 50 µM) was 10.5 ± 6.5%. The “Average inhibition %, biofilms viability” value ([4]; 100 µM) was 0.5 ± 0.9%, the “Average inhibition %, planktonic cells viability” value ([4]; 100 µM) was 14.8 ± 0.4% and the “Average inhibition %, biofilms viability” value ([4]; 150 µM) was 2.6 ± 3.8%. The “Average inhibition %, planktonic cells viability” value ([4]; 150 µM) was 20.2 ± 15%, the “Average inhibition %, biofilms viability” value ([4]; 200 µM) was 1.1 ± 1% and the “Average inhibition %, planktonic cells viability” value ([4]; 200 µM) was 16.3 ± 15.7%. For the same compound, the inhibition at 50 µM [4, 13] was 6.4 ± 11.1%, the inhibition at 50 µM [4, 14] was 35.2 ± 3% and the inhibition at 100 µM ([4]; 100 µM, read-out: Average inhibition %, biofilms biomass) was 2.1 ± 2.3%. The inhibition at 100 µM ([4]; 100 µM, read-out: Average inhibition %, planktonic cells turbidity) was 38.6 ± 10.1%, the inhibition at 150 µM ([4]; 150 µM, read-out: Average inhibition %, biofilms biomass) was 1.3 ± 2.3% and the inhibition at 150 µM ([4]; 150 µM, read-out: Average inhibition %, planktonic cells turbidity) was 34.8 ± 16.4%. For the same compound, the inhibition at 200 µM ([4]; 200 µM, read-out: Average inhibition %, biofilms biomass) was 3.7 ± 4.7%, the inhibition at 200 µM ([4]; 200 µM, read-out: Average inhibition %, planktonic cells turbidity) was 33.2 ± 7.3% and the “MIC P. aeruginosa ATCC 9027” value ([4]; pre-exposure, Inactive = no activity up to 200 μM, > = some inhibition but no MIC reached) was “Inactive”.
